Measurements reported in PubChem BioAssay AID2060484 (Molecular Pharmacology Branch, DTP, NCI, 2025).

Test system: SUM149PT spheroids with HUVEC/MSC, viability
Assay: Anticancer human tumor SUM149PT cell line growth inhibition [GQUAD];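 note: spheroids exposed to drugs for seven days before readout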;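 for viability, T/C: percent viability relative to DMSO vehicle control taken as 100%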
Details: for IC50: curve of first compound; for viability, T/C: stronger effect = lower value
Method in brief: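 Tumor cells were grown as complex spheroids with HUVEC endothelial cells and mesenchymal stem cells as stroma. G-quadruplex stabilizers were combined with targeted agents over half-log dilutions from near the clinical Cmax, or from 10 microM.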

[1] = second compound 0.0316 µM, first compound 0.0316 µM
[2] = second compound 0.0316 µM, first compound 0.316 µM
[3] = second compound 0.1 µM, first compound 0.0316 µM
[4] = second compound 0.1 µM, first compound 0.316 µM
[5] = second compound 0.316 µM, first compound 0.0316 µM
[6] = second compound 0.316 µM, first compound 0.316 µM
[7] = second compound 1 µM, first compound 0.0316 µM
[8] = second compound 1 µM, first compound 0.316 µM
[9] = second compound 3.16 µM, first compound 0.0316 µM
[10] = second compound 3.16 µM, first compound 0.316 µM
[11] = second compound 10 µM, first compound 0.0316 µM
[12] = second compound 10 µM, first compound 0.316 µM

SMILES: Cc1[nH]c2ccccc2c1CCNCc1ccc(/C=C/C(=O)NO)cc1 + Cc1cnc(CNC(=O)c2c(=O)c3ccc(N4CCCN(C)CC4)nc3n3c2sc2ccccc23)cn1
- IC50 (second compound 0.0316 µM): 131 nM
- IC50 (second compound 0.1 µM): 100 nM
- IC50 (second compound 0.316 µM): 56 nM
- IC50 (second compound 1 µM): < 0.999 nM
- IC50 (second compound 3.16 µM): < 0.999 nM
- IC50 (second compound 10 µM): < 0.999 nM
- viability, T/C (second compound 0.0316 µM, first compound 0.000999 µM): 106%
- viability, T/C (second compound 0.0316 µM, first compound 0.00316 µM): 86.2%
- viability, T/C (second compound 0.0316 µM, first compound 0.00999 µM): 90%
- viability, T/C [1]: 89.5%
- viability, T/C (second compound 0.0316 µM, first compound 0.0999 µM): 56%
- viability, T/C [2]: 29.8%
- viability, T/C (second compound 0.1 µM, first compound 0.000999 µM): 66.2%
- viability, T/C (second compound 0.1 µM, first compound 0.00316 µM): 62.1%
- viability, T/C (second compound 0.1 µM, first compound 0.00999 µM): 67.7%
- viability, T/C [3]: 65.2%
- viability, T/C (second compound 0.1 µM, first compound 0.0999 µM): 50.1%
- viability, T/C [4]: 26.9%
- viability, T/C (second compound 0.316 µM, first compound 0.000999 µM): 54.2%
- viability, T/C (second compound 0.316 µM, first compound 0.00316 µM): 55.2%
- viability, T/C (second compound 0.316 µM, first compound 0.00999 µM): 55.3%
- viability, T/C [5]: 54.9%
- viability, T/C (second compound 0.316 µM, first compound 0.0999 µM): 45.7%
- viability, T/C [6]: 25%
- viability, T/C (second compound 1 µM, first compound 0.000999 µM): 51.1%
- viability, T/C (second compound 1 µM, first compound 0.00316 µM): 43.2%
- viability, T/C (second compound 1 µM, first compound 0.00999 µM): 48.5%
- viability, T/C [7]: 47.7%
- viability, T/C (second compound 1 µM, first compound 0.0999 µM): 46.2%
- viability, T/C [8]: 20.2%
- viability, T/C (second compound 3.16 µM, first compound 0.000999 µM): 39.1%
- viability, T/C (second compound 3.16 µM, first compound 0.00316 µM): 40.3%
- viability, T/C (second compound 3.16 µM, first compound 0.00999 µM): 39.1%
- viability, T/C [9]: 42.6%
- viability, T/C (second compound 3.16 µM, first compound 0.0999 µM): 37.9%
- viability, T/C [10]: 17.8%
- viability, T/C (second compound 10 µM, first compound 0.000999 µM): 0.24%
- viability, T/C (second compound 10 µM, first compound 0.00316 µM): 1.67%
- viability, T/C (second compound 10 µM, first compound 0.00999 µM): 9.84%
- viability, T/C [11]: 10.1%
- viability, T/C (second compound 10 µM, first compound 0.0999 µM): 2.55%
- viability, T/C [12]: 2%

SMILES: O=C(NO)c1cnc(N2CCN(S(=O)(=O)c3ccc4ccccc4c3)CC2)nc1 + Cc1cnc(CNC(=O)c2c(=O)c3ccc(N4CCCN(C)CC4)nc3n3c2sc2ccccc23)cn1
- IC50 (second compound 0.0316 µM): 124 nM
- IC50 (second compound 0.1 µM): 184 nM
- IC50 (second compound 0.316 µM): 121 nM
- IC50 (second compound 1 µM): < 31.6 nM
- IC50 (second compound 3.16 µM): < 31.6 nM
- IC50 (second compound 10 µM): < 31.6 nM
- viability, T/C [1]: 90.1%
- viability, T/C (second compound 0.0316 µM, first compound 0.1 µM): 47.7%
- viability, T/C [2]: 42.7%
- viability, T/C (second compound 0.0316 µM, first compound 1 µM): 0.16%
- viability, T/C (second compound 0.0316 µM, first compound 3.16 µM): 0.95%
- viability, T/C (second compound 0.0316 µM, first compound 10 µM): 3.31%
- viability, T/C [3]: 65.5%
- viability, T/C (second compound 0.1 µM, first compound 0.1 µM): 52.9%
- viability, T/C [4]: 41.9%
- viability, T/C (second compound 0.1 µM, first compound 1 µM): 0.15%
- viability, T/C (second compound 0.1 µM, first compound 3.16 µM): 0.63%
- viability, T/C (second compound 0.1 µM, first compound 10 µM): 2.26%
- viability, T/C [5]: 51.9%
- viability, T/C (second compound 0.316 µM, first compound 0.1 µM): 54%
- viability, T/C [6]: 35.9%
- viability, T/C (second compound 0.316 µM, first compound 1 µM): 2.48%
- viability, T/C (second compound 0.316 µM, first compound 3.16 µM): 0.95%
- viability, T/C (second compound 0.316 µM, first compound 10 µM): 0.63%
- viability, T/C [7]: 48.3%
- viability, T/C (second compound 1 µM, first compound 0.1 µM): 45.7%
- viability, T/C [8]: 34%
- viability, T/C (second compound 1 µM, first compound 1 µM): 1.85%
- viability, T/C (second compound 1 µM, first compound 3.16 µM): 1.22%
- viability, T/C (second compound 1 µM, first compound 10 µM): 0.11%
- viability, T/C [9]: 39%
- viability, T/C (second compound 3.16 µM, first compound 0.1 µM): 37.8%
- viability, T/C [10]: 27.7%
- viability, T/C (second compound 3.16 µM, first compound 1 µM): 0.11%
- viability, T/C (second compound 3.16 µM, first compound 3.16 µM): 0.1%
- viability, T/C (second compound 3.16 µM, first compound 10 µM): 0.32%
- viability, T/C [11]: 0.2%
- viability, T/C (second compound 10 µM, first compound 0.1 µM): 2.04%
- viability, T/C [12]: 1.16%
- viability, T/C (second compound 10 µM, first compound 1 µM): 0.97%
- viability, T/C (second compound 10 µM, first compound 3.16 µM): 0.39%
- viability, T/C (second compound 10 µM, first compound 10 µM): 2.62%
